Results taken from patent US20100234238A1, “METHOD FOR PROFILING KINASE INHIBITORS” (Janssen Pharmaceutica N V, priority 2006, published 2010).

Test system: tyrosine kinase activity in xenograft tumor lysates
Experiment: PAMCHIP96 (140-peptide array) profiling of xenograft tumor lysates in absence or presence of MTKI
Format: biochemical
Conditions: 5 μM
Method: 100 mg of frozen tumor or tissue blocks, or sections, are lysed in 1 ml of M-PER buffer (PIERCE) containing phosphatase and protease inhibitors (HALT, PIERCE). The suspension is mixed using a ULTRA-TURRAX blender (IKA werke), and centrifuged twice for 10 minutes at 12 000×g. Supernatant lysates are filtered through a 0.2 micrometer filter (Anotop 0.2 μm anopore filter; Whatmann). Lysates are flash frozen in liquid nitrogen and stored at −80C.
Just prior to the PAMCHIP experiment, total protein content is quantitated in the lysates and lysates are diluted to 1 mg/ml in a total volume of 200 μl, with M-PER phosphatase and protease inhibitors (HALT, PIERCE). 10 μg of total lysate (corresponding to 10 μl) will be used per well on the PAMCHIP96.
To all 200 μl lysates 10 units of benzonase (Novagen) is added and lysates are further incubated for 30 min on ice and next centrifuged for 10 minutes at 12 000×g. The supernatant is then 1:1 diluted with compound or DMSO diluted to the appropriate concentration in water, and lysates are further incubated exactly 60 min on ice. Meanwhile, a PAMCHIP96 tyrosine peptide chip (PAMGENE) is blocked with 2% BSA (filtered through a 0.2 μm anopore filter; Whatmann) using the standard setting of a PAMSTATION96 (PAMGENE).
The composition of the kinase buffer is as follows: 1×ABL buffer (NEB), 0.5 mg/ml BSA (from 10 mg/ml NEB stock), 100 μM ATP (dissolved and diluted in 1×ABL buffer), 5 μg/ml PY20-FITC (ExAlpha Biologicals, azide-free preparation). A twofold concentrated kinase buffer is prepared chilled on ice, DMSO or compound is added as appropriate, and the solution is added 1:1 to the (compound treated) ice cold lysates, and immediately applied to a tyrosine peptide PAMCHIP96. The assay is run on a PAMSTATION96 according to standard procedures: after loading of the plate, solution is pumped once onto the wells, a first exposure is read (150 mSec) and then a kinetic reading program (reading every 5 min for 150 mSec) is run for 60 min. Lysates are run in 6 technical replicates for each condition; replicates are always applied horizontally next to each other to avoid vertical strip effects of the chip.
The data (spot images) are further quantified and linked to the peptide identities using EVOLVE PAMGRID software (PAMGENE). The quantified data are then fit to a curve using CurveFitHT software (PAMGENE) using the Vinip2 curve fitting algorithm, applied on the first 30 min of the assay; the initial velocity is derived at the first kinetic time point read. All subsequent data analyses were done on initial velocities (Vini) using the software packages Omniviz and R (Ihaka, R. and Gentlemen, R. (1996) R: a language for data analysis and graphics. J. Comput. Graph. Stat., 5, 299-314).
After replacing the Vini's lower than 0.1 by 0.1, all Vini's were log 2-transformed to approach normality. […] This test was done for each peptide separately using a mixed model (Littell, R. C., Milliken, G. A., Stroup, W. W., Wolfinger, R. D. 1996. SAS system for mixed models. Cary, N. C.: SAS Institute Inc.) allowing the incorporation of both technical variation (i.e., the variation across replicates) and biological variation (i.e., the variation among the various responding and non-responding cell lines or tumors). Variation between cell lines or tumors in Vini and in treatment effect on Vini was modeled respectively by random intercepts and random compound effects per cell line or tumor, nested in response status. The difference in compound-induced reduction in Vini between responding and non-responding cell lines or tumors was tested through the interaction between compound treatment and response status, both modeled as fixed effects.

SMILES: COc1cc2ncnc3c2cc1OCCCCCN(C)Cc1ccc(Br)cc1N3 [MTKI, 4,6-ethanediylidenepyrimido[4,5-b][6,1,12]benzoxadiazacyclopentadecine, 17-bromo-8,9,10,11,12,13,14,19-octahydro-20-methoxy-13-methyl-]
- ratio of initial velocity of peptide phosphorylation (A431 xenograft tumor lysate, CDK7_157_169_S164): 0.60
- ratio of initial velocity of peptide phosphorylation (A431 xenograft tumor lysate, EPHB1_921_933_Y928): 0.39
- ratio of initial velocity of peptide phosphorylation (A431 xenograft tumor lysate, FAK1_569_581_Y576/Y577): 0.58
- ratio of initial velocity of peptide phosphorylation (A431 xenograft tumor lysate, GSK3B_209_221_Y216): 0.67
- ratio of initial velocity of peptide phosphorylation (A431 xenograft tumor lysate, K2C6E_53_65_S59): 0.54
- ratio of initial velocity of peptide phosphorylation (A431 xenograft tumor lysate, MBP_259_271_Y261/Y268/S266): 0.60
- ratio of initial velocity of peptide phosphorylation (A431 xenograft tumor lysate, MK10_216_228_T221/Y223): 0.60
- ratio of initial velocity of peptide phosphorylation (A431 xenograft tumor lysate, NCF1_313_325_S315/S320): 0.66
- ratio of initial velocity of peptide phosphorylation (A431 xenograft tumor lysate, NTRK2_699_711_Y702/Y706/Y707): 0.46
- ratio of initial velocity of peptide phosphorylation (A431 xenograft tumor lysate, P2AB_297_309_T304/Y307): 0.65
- ratio of initial velocity of peptide phosphorylation (A431 xenograft tumor lysate, PGFRB_572_584_Y579/Y581): 0.64
- ratio of initial velocity of peptide phosphorylation (A431 xenograft tumor lysate, RAF1_331_343_S337/S338/Y339/Y340): 0.58
- ratio of initial velocity of peptide phosphorylation (A431 xenograft tumor lysate, RB_804_816_S807/S811): 0.53
- ratio of initial velocity of peptide phosphorylation (A431 xenograft tumor lysate, SYN1_2_14_S9): 0.76
- ratio of initial velocity of peptide phosphorylation (A431 xenograft tumor lysate, TYRO3_679_691_Y686): 0.55
- ratio of initial velocity of peptide phosphorylation (A431 xenograft tumor lysate, VEGFR2_944_956_Y951): 0.58
- ratio of initial velocity of peptide phosphorylation (A431 xenograft tumor lysate, VINC_815_827_Y821): 0.52
- ratio of initial velocity of peptide phosphorylation (BT474 xenograft tumor lysate, EPHB1_921_933_Y928): 0.70
- ratio of initial velocity of peptide phosphorylation (BT474 xenograft tumor lysate, FAK1_569_581_Y576/Y577): 0.89
- ratio of initial velocity of peptide phosphorylation (BT474 xenograft tumor lysate, GSK3B_209_221_Y216): 0.89
- ratio of initial velocity of peptide phosphorylation (BT474 xenograft tumor lysate, K2C6E_53_65_S59): 0.80
- ratio of initial velocity of peptide phosphorylation (BT474 xenograft tumor lysate, MBP_259_271_Y261/Y268/S266): 0.85
- ratio of initial velocity of peptide phosphorylation (BT474 xenograft tumor lysate, MK10_216_228_T221/Y223): 0.83
- ratio of initial velocity of peptide phosphorylation (BT474 xenograft tumor lysate, NCF1_313_325_S315/S320): 1.02
- ratio of initial velocity of peptide phosphorylation (BT474 xenograft tumor lysate, NTRK2_699_711_Y702/Y706/Y707): 0.77
- ratio of initial velocity of peptide phosphorylation (BT474 xenograft tumor lysate, P2AB_297_309_T304/Y307): 0.62
- ratio of initial velocity of peptide phosphorylation (BT474 xenograft tumor lysate, PGFRB_572_584_Y579/Y581): 0.75
- ratio of initial velocity of peptide phosphorylation (BT474 xenograft tumor lysate, RAF1_331_343_S337/S338/Y339/Y340): 0.94
- ratio of initial velocity of peptide phosphorylation (BT474 xenograft tumor lysate, RB_804_816_S807/S811): 0.80
- ratio of initial velocity of peptide phosphorylation (BT474 xenograft tumor lysate, SYN1_2_14_S9): 0.96
- ratio of initial velocity of peptide phosphorylation (BT474 xenograft tumor lysate, TYRO3_679_691_Y686): 0.84
- ratio of initial velocity of peptide phosphorylation (BT474 xenograft tumor lysate, VEGFR2_944_956_Y951): 0.84
- ratio of initial velocity of peptide phosphorylation (BT474 xenograft tumor lysate, VINC_815_827_Y821): 0.85
- ratio of initial velocity of peptide phosphorylation (DU145 xenograft tumor lysate, CDK7_157_169_S164): 0.96
- ratio of initial velocity of peptide phosphorylation (DU145 xenograft tumor lysate, EPHB1_921_933_Y928): 0.81
- ratio of initial velocity of peptide phosphorylation (DU145 xenograft tumor lysate, FAK1_569_581_Y576/Y577): 0.72
- ratio of initial velocity of peptide phosphorylation (DU145 xenograft tumor lysate, GSK3B_209_221_Y216): 1.07
- ratio of initial velocity of peptide phosphorylation (DU145 xenograft tumor lysate, K2C6E_53_65_S59): 0.77
- ratio of initial velocity of peptide phosphorylation (DU145 xenograft tumor lysate, MBP_259_271_Y261/Y268/S266): 0.81
- ratio of initial velocity of peptide phosphorylation (DU145 xenograft tumor lysate, MK10_216_228_T221/Y223): 0.77
- ratio of initial velocity of peptide phosphorylation (DU145 xenograft tumor lysate, NCF1_313_325_S315/S320): 0.97
- ratio of initial velocity of peptide phosphorylation (DU145 xenograft tumor lysate, NTRK2_699_711_Y702/Y706/Y707): 0.77
- ratio of initial velocity of peptide phosphorylation (DU145 xenograft tumor lysate, P2AB_297_309_T304/Y307): 0.81
- ratio of initial velocity of peptide phosphorylation (DU145 xenograft tumor lysate, PGFRB_572_584_Y579/Y581): 0.72
- ratio of initial velocity of peptide phosphorylation (DU145 xenograft tumor lysate, RAF1_331_343_S337/S338/Y339/Y340): 0.83
- ratio of initial velocity of peptide phosphorylation (DU145 xenograft tumor lysate, RB_804_816_S807/S811): 0.76
- ratio of initial velocity of peptide phosphorylation (DU145 xenograft tumor lysate, SYN1_2_14_S9): 0.88
- ratio of initial velocity of peptide phosphorylation (DU145 xenograft tumor lysate, TYRO3_679_691_Y686): 0.83
- ratio of initial velocity of peptide phosphorylation (DU145 xenograft tumor lysate, VEGFR2_944_956_Y951): 0.95
- ratio of initial velocity of peptide phosphorylation (DU145 xenograft tumor lysate, VINC_815_827_Y821): 0.84
